Laboratory results: patent US10844044B2 (Vanderbilt University, priority 2018, dated 2020)

What follows are molecules tested against WDR5 (Homo sapiens (Human), UniProt P61964) (assay: TR-FRET binding assay (displacement of 10mer-Thr-FAM probe from WDR5)). Conditions: read-out: Ki for Inhibition of WDR5 by TR-FRET assay.

| Structure (SMILES) | Ki [nM] |
| --- | --- |
| Cc1cc([C@@H](NC(=O)c2cc(Cn3c(C)coc3=N)cc(-c3cccnc3C(F)(F)F)c2)C2CC2)ccc1F [Example 252, (S)—N-(Cyclopropyl(4-fluoro-3-methylphenyl)methyl)-3-((2-imino-4-methyloxazol-3(2H)-yl)methyl)-5-(2-(trifluoromethyl)pyridin-3-yl)benzamide] | 21 |
| Cc1ccnc(C(NC(=O)c2cc(Cn3ccn(C)c3=N)cc(-c3ncnc4c3CCCC4)c2)C2CC2)c1 (stereo not drawn) [Example 95, N-(Cyclopropyl(4-methylpyridin-2-yl)methyl)-3-((2-imino-3-methyl-2,3-dihydro-1H-imidazol-1-yl)methyl)-5-(5,6,7,8-tetrahydroquinazolin-4-yl)benzamide] | 20 |

Same assay, conditions: read-out: Ki for Inhibition of WDR5 by TR-FRET assay; TR-FRET, 10mer-Thr-FAM probe, WDR5-His tag 2 nM, pH 7.0

| Structure (SMILES) | Ki [nM] |
| --- | --- |
| Cc1cc([C@H](C)NC(=O)c2cc(Cn3ccn(C)c3=N)cc(OCC3CC3)c2)ccc1F [Example 181, (S)-3-(Cyclopropylmethoxy)-N-(1-(4-fluoro-3-methylphenyl)ethyl)-5-((2-imino-3-methyl-2,3-dihydro-1H-imidazol-1-yl)methyl)benzamide] | 0.35 |
| Cc1cc(CNC(=O)c2cc(Cn3ccn(C)c3=N)cc(-c3cnc(F)cc3C)c2)ccc1Cl [Example 79, N-(4-Chloro-3-methylbenzyl)-3-(6-fluoro-4-methylpyridin-3-yl)-5-((2-imino-3-methyl-2,3-dihydro-1H-imidazol-1-yl)methyl)benzamide] | 4.3 |
| Cn1ccn(Cc2cc(OC(F)(F)F)cc(C(=O)N[C@@H](CC(=O)O)c3cccc(C(F)(F)F)c3)c2)c1=N [Example 146, (S)-3-(3-((2-Imino-3-methyl-2,3-dihydro-1H-imidazol-1-yl)methyl)-5-(trifluoromethoxy)benzamido)-3-(3-(trifluoromethyl)phenyl)propanoic acid] | 10 |
| Cc1ncccc1-c1cc(Cn2ccn(C)c2=N)cc(C(=O)NCc2cncnc2)c1 [Example 40, 3-((2-Imino-3-methyl-2,3-dihydro-1H-imidazol-1-yl)methyl)-5-(2-methylpyridin-3-yl)-N-(pyrimidin-5-ylmethyl)benzamide] | 133 |
| Cc1cc(F)ccc1-c1cc(Cn2cc[nH]c2=N)cc(C(=O)NCc2ccc(Cl)c(Cl)c2)n1 [Example 6, N-(3,4-Dichlorobenzyl)-6-(4-fluoro-2-methylphenyl)-4-((2-imino-2,3-dihydro-1H-imidazol-1-yl)methyl)picolinamide] | 24 |
| Cc1cc(F)ccc1-c1cc(Cn2ccn(C)c2=N)cc(C(=O)N[C@H](c2ccc(F)c(C)n2)C2CC2)c1 [Example 173, (S)-1N-(Cyclopropyl(5-fluoro-6-methylpyridin-2-yl)methyl)-4′-fluoro-5-((2-imino-3-methyl-2,3-dihydro-1H-imidazol-1-yl)methyl)-2′-methyl-[1,1′-biphenyl]-3-carboxamide] | 0.89 |
| Cc1cc(F)ccc1-c1cc(Cn2ccn(C)c2=N)cc(C(=O)NCc2ccc(Cl)c(F)c2)n1 [Example 359, N-(4-Chloro-3-fluorobenzyl)-6-(4-fluoro-2-methylphenyl)-4-((2-imino-3-methyl-2,3-dihydro-1H-imidazol-1-yl)methyl)picolinamide] | 8.7 |
| Cc1ccnc(C(NC(=O)c2cc(Cn3ccn(C)c3=N)cc(-c3cnccc3C)c2)C2CC2)c1 (stereo not drawn) [Example 15, N-(Cyclopropyl(4-methylpyridin-2-yl)methyl)-3-((2-imino-3-methyl-2,3-dihydro-1H-imidazol-1-yl)methyl)-5-(4-methylpyridin-3-yl)benzamide] | 2.7 |
| Cc1cc(-c2cc(Cn3ccn(C)c3=N)cc(C(=O)NC(C3CC3)C3CC3)c2)ccn1 [Example 49, N-(Dicyclopropylmethyl)-3-((2-imino-3-methyl-2,3-dihydro-1H-imidazol-1-yl)methyl)-5-(2-methylpyridin-4-yl)benzamide] | 22 |
| COc1cc(-c2cc(Cn3ccn(C)c3=N)cc(C(=O)NCc3ccc(Cl)c(Cl)c3)c2)ccn1 [Example 24, N-(3,4-Dichlorobenzyl)-3-((2-imino-3-methyl-2,3-dihydro-1H-imidazol-1-yl)methyl)-5-(2-methoxypyridin-4-yl)benzamide] | 25 |
| N=C1SCCN1Cc1cc(C(=O)N[C@H](c2ccc(Cl)c(Cl)c2)C2CC2)cc(-c2cccnc2C(F)(F)F)c1 [Example 311, (S)—N-(Cyclopropyl(3,4-dichlorophenyl)methyl)-3-((2-iminothiazolidin-3-yl)methyl)-5-(2-(trifluoromethyl)pyridin-3-yl)benzamide] | 1.49 |
| Cc1ccnc(C(NC(=O)c2cc(Cn3ccoc3=N)cc(-c3ncccc3C(F)(F)F)c2)C2CC2)c1 (stereo not drawn) [Example 237, N-(Cyclopropyl(4-methylpyridin-2-yl)methyl)-3-((2-iminooxazol-3(2H)-yl)methyl)-5-(3-(trifluoromethyl)pyridin-2-yl)benzamide] | 7.5 |
| Cc1cc([C@@H](NC(=O)c2cc(CN3CCCOC3=N)cc(-c3cccnc3C(F)(F)F)c2)C2CC2)ccc1F [Example 362, (S)—N-(Cyclopropyl(4-fluoro-3-methylphenyl)methyl)-3-((2-imino-1,3-oxazinan-3-yl)methyl)-5-(2-(trifluoromethyl)pyridin-3-yl)benzamide] | 0.72 |
| CCOc1cc(Cn2ccn(C)c2=N)cc(C(=O)NCc2ccc(Cl)c(C)c2)c1 [Example 183, N-(4-Chloro-3-methylbenzyl)-3-ethoxy-5-((2-imino-3-methyl-2,3-dihydro-1H-imidazol-1-yl)methyl)benzamide] | 0.71 |
| Cn1ccn(Cc2cc(C(=O)N[C@H](c3ccc(Cl)c(Cl)c3)C3CC3)cc(-c3ccc(F)cc3OC(F)F)c2)c1=N [Example 150, (S)—N-(Cyclopropyl(3,4-dichlorophenyl)methyl)-2′-(difluoromethoxy)-4′-fluoro-5-((2-imino-3-methyl-2,3-dihydro-1H-imidazol-1-yl)methyl)-[1,1′-biphenyl]-3-carboxamide] | 0.13 |
| Cc1cc([C@@H](NC(=O)c2cc(Cn3ccn(C4CC4)c3=N)cc(-c3cn(CC(C)C)nc3C(F)(F)F)c2)C2CC2)ccc1F [Example 163, (S)—N-(Cyclopropyl(4-fluoro-3-methylphenyl)methyl)-3-((3-cyclopropyl-2-imino-2,3-dihydro-1H-imidazol-1-yl)methyl)-5-(1-isobutyl-3-(trifluoromethyl)-1H-pyrazol-4-yl)benzamide] | 0.68 |
| Cc1cc([C@@H](NC(=O)c2cc(CN3CCSC3=N)cc(-c3cn(C4CCCC4)nc3C(F)(F)F)c2)C2CC2)ccc1F [Example 314, (S)-3-(1-Cyclopentyl-3-(trifluoromethyl)-1H-pyrazol-4-yl)-N-(cyclopropyl(4-fluoro-3-methylphenyl)methyl)-5-((2-iminothiazolidin-3-yl)methyl)benzamide] | 4 |
| Cn1ccn(Cc2cc(C(=O)N[C@H](c3ccc(F)cn3)C3CC3)cc(-c3cccnc3C(F)(F)F)c2)c1=N [Example 128, (S)—N-(Cyclopropyl(5-fluoropyridin-2-yl)methyl)-3-((2-imino-3-methyl-2,3-dihydro-1H-imidazol-1-yl)methyl)-5-(2-(trifluoromethyl)pyridin-3-yl)benzamide] | 23 |
| Cc1ccnc(C(NC(=O)c2cc(Cn3ccn(C)c3=N)cc(-c3ccc(F)cc3C)n2)C2CC2)c1 (stereo not drawn) [Example 356, N-(Cyclopropyl(4-methylpyridin-2-yl)methyl)-6-(4-fluoro-2-methylphenyl)-4-((2-imino-3-methyl-2,3-dihydro-1H-imidazol-1-yl)methyl)picolinamide] | 182 |
